Biological target: CXCR3 (Macaca fascicularis, UniProt A0A2K5UV19)
Experiment: functional cellular assay measuring calcium flux in CXCR3 transfected cells (block of CXCR3/IP-10 interaction)
Type: cell-based
Conditions: IP-10 induced intracellular calcium flux; Cyno-CHO cells stably expressing recombinant CXCR3 and G-alpha-16
Procedure: Compounds are assessed for the ability to block the interaction of CXCR3 and IP-10 in a functional cellular assay measuring calcium flux in CXCR3 transfected cells.
Cyno-CHO cells, stably expressing recombinant CXCR3 and G-alpha-16 are grown in F12 medium (Mediatech #45000-360) supplemented with 10% (V/V) FBS (Mediatech #35-01500), 1% Geneticin (Invitrogen #10131-027) and 0.2% Zeocin (Invitrogen #R250-05). The cells are spun down and re-suspended in growth media to a concentration of 4.8 E5 cells/mL. 25 microL of cell suspension is added to each well of a BD-384-well TC treated plate, providing 12,000 cells/well. The plate is incubated at 37° C./5% CO2 overnight. On the day of the assay, the plates are removed, the media is flicked out and 25 microL of Ca-4 dye in assay buffer (HBSS, 10 mM HEPES ph 7.4), containing 2 mM probenacid is added to each well. The cell assay plates are then incubated at 37° C./5% CO2 for one hour.
Test compounds are dissolved in DMSO and diluted to 1.045 mM in DMSO. Just prior to assay, 2.75 microL of appropriately diluted test compound are added to each well of a 384 well plate containing 45 microL of HBSS buffer. After mixing, 5 microL of diluted compound are added to each well of the cell assay plate for a final assay concentration of 10 microM. The plate is incubated at room temperature for 15 min. 10 microL of IP-10 stock solution in HBSS (4× EC80 concentration) are added to each well of the cell assay plate except those cells reserved as blank wells containing buffer only. Intracellular calcium flux is recorded on the HAMAMTSU FDSS6000, using excitation at 480 nm and emission at 540 nm. Data are analyzed using Activity Base software.
In general, the preferred potency range (IC50) of compounds in the above assay is between 1 nM to 3 μM, and the most preferred potency range is 1 nM to 20 nM.

Chain of CXCR3 (A0A2K5UV19 entry or part of it): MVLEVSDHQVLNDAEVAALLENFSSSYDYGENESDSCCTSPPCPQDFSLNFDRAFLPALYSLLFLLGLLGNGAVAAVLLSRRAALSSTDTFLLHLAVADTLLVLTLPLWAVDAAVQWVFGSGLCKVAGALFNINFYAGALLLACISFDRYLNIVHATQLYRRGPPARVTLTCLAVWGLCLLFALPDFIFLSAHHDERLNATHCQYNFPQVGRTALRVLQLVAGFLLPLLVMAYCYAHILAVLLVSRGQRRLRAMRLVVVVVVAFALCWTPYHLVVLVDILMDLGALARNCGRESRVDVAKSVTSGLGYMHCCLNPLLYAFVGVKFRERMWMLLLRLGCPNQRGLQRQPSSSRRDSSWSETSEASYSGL

`O=C(Nc1ccncc1)c1ccccc1N1CCN(C(=O)Cc2coc3ccccc23)CC1` [2-[4-(2-Benzofuran-3-yl-acetyl)-piperazin-1-yl]-N-pyridin-4-yl-benzamide] gave an IC50 of 10.3 nM.

`Cc1cc(C)n(CC(=O)N2CCN(c3ccccc3C(=O)Nc3ccc4ncccc4c3)CC2)n1` [2-{4-[2-(3,5-Dimethyl-pyrazol-1-yl)-acetyl]-piperazin-1-yl}-N-quinolin-6-yl-benzamide] gave an IC50 of 11.5 nM.

Compound `CN(CC(=O)N1CCN(c2ccccc2C(=O)Nc2ccncc2)CC1)C(=O)c1cccn1C` [1-Methyl-1H-pyrrole-2-carboxylic acid methyl-(2-oxo-2-{4-[2-(pyridin-4-ylcarbamoyl)-phenyl]-piperazin-1-yl}-ethyl)-amide] has an IC50 of 6.5 nM.

`Cc1cc(C)n(CC(=O)N2CCN(c3ccccc3C(=O)Nc3ccc(-c4ccccc4)nc3)CC2)n1` [2-{4-[2-(3,5-Dimethyl-pyrazol-1-yl)-acetyl]-piperazin-1-yl}-N-(6-phenyl-pyridin-3-yl)-benzamide] gave an IC50 of 11.5 nM.

With `Cc1cc(C)n(CC(=O)N2CCN(c3ncc(Cl)cc3NC(=O)c3cccc(C(F)(F)F)c3)CC2)n1` [N-(5-Chloro-2-{4-[2-(3,5-dimethyl-pyrazol-1-yl)-acetyl]-piperazin-1-yl}-pyridin-3-yl)-3-trifluoromethyl-benzamide] the IC50 was 10.6 nM.

For `Cc1nc2ccccc2c(=O)n1CC(=O)N1CCN(c2ccccc2C(=O)Nc2ccncc2)CC1` [2-{4-[2-(2-Methyl-4-oxo-4H-quinazolin-3-yl)-acetyl]-piperazin-1-yl}-N-pyridin-4-yl-benzamide], the IC50 was 8.6 nM.

`COc1cc(NC(=O)c2cc(F)ccc2N2CCN(C(=O)Cn3nc(C)cc3C)CC2)ccn1` [2-{4-[2-(3,5-Dimethyl-pyrazol-1-yl)-acetyl]-piperazin-1-yl}-5-fluoro-N-(2-methoxy-pyridin-4-yl)-benzamide] showed an IC50 of 9.7 nM.

Work on `Cc1cc(C)n(CC(=O)N2CCN(c3ccccc3C(=O)Nc3ccnc(Br)c3)CC2)n1` [N-(2-Bromo-pyridin-4-yl)-2-{4-[2-(3,5-dimethyl-pyrazol-1-yl)-acetyl]-piperazin-1-yl}-benzamide] yielded an IC50 of 4.1 nM.

With `Cc1cc(C)n(CC(=O)N2CCN(c3ccccc3C(=O)Nc3ccc(Cl)nc3)CC2)n1` [N-(6-Chloro-pyridin-3-yl)-2-{4-[2-(3,5-dimethyl-pyrazol-1-yl)-acetyl]-piperazin-1-yl}-benzamide] the IC50 was 7.2 nM.

`Cc1cc(C)n(CC(=O)N2CCN(c3ccccc3C(=O)Nc3cccc(OC(F)(F)F)c3)CC2)n1` [2-{4-[2-(3,5-Dimethyl-pyrazol-1-yl)-acetyl]-piperazin-1-yl}-N-(3-trifluoromethoxy-phenyl)-benzamide] was tested, and the IC50 was 3.1 nM.

In the case of `COc1cccc(NC(=O)c2ccccc2N2CCN(C(=O)Cn3nc(C)cc3C)CC2)c1` [2-{4-[2-(3,5-Dimethyl-pyrazol-1-yl)-acetyl]-piperazin-1-yl}-N-(3-methoxy-phenyl)-benzamide], the IC50 is reported as 4.3 nM.

`Cc1cc(C)n(CC(=O)N2CCN(c3ccccc3C(=O)Nc3ccc(N4CCOCC4)nc3)CC2)n1` [2-{4-[2-(3,5-Dimethyl-pyrazol-1-yl)-acetyl]-piperazin-1-yl}-N-(6-morpholin-4-yl-pyridin-3-yl)-benzamide] was tested, and the IC50 was 12.5 nM.

In the case of `O=C(Nc1ccccc1)c1ccccc1N1CCN(C(=O)Cn2ccc3cccnc32)CC1` [N-Phenyl-2-[4-(2-pyrrolo[2,3-b]pyridin-1-yl-acetyl)-piperazin-1-yl]-benzamide], the IC50 is reported as 3.4 nM.

`Cc1cc(C)n(CC(=O)N2CCN(c3ccccc3C(=O)Nc3ccnc(C(F)(F)F)c3)CC2)n1` [2-{4-[2-(3,5-Dimethyl-pyrazol-1-yl)-acetyl]-piperazin-1-yl}-N-(2-trifluoromethyl-pyridin-4-yl)-benzamide] showed an IC50 of 12 nM.

In the case of `O=C(Nc1ccc(C(F)(F)F)nc1)c1ccccc1N1CCN(C(=O)Cn2ccc3cccnc32)CC1` [2-[4-(2-Pyrrolo[2,3-b]pyridin-1-yl-acetyl)-piperazin-1-yl]-N-(6-trifluoromethyl-pyridin-3-yl)-benzamide], the IC50 is reported as 6.9 nM.

`Cc1cc(C)n(CC(=O)N2CCN(c3ccccc3C(=O)Nc3cnc4ccccc4c3)CC2)n1` [2-{4-[2-(3,5-Dimethyl-pyrazol-1-yl)-acetyl]-piperazin-1-yl}-N-quinolin-3-yl-benzamide] gave an IC50 of 4.8 nM.

`Cc1cc(C)n(CC(=O)N2CCN(c3ccccc3C(=O)Nc3ccnc(N4CCN(C)CC4)c3)CC2)n1` [2-{4-[2-(3,5-Dimethyl-pyrazol-1-yl)-acetyl]-piperazin-1-yl}-N-[2-(4-methyl-piperazin-1-yl)-pyridin-4-yl]-benzamide] showed an IC50 of 14 nM.

Work on `O=C(Nc1ccncc1)c1ccccc1N1CCN(C(=O)CN2Cc3ccccc3C2=O)CC1` [2-{4-[2-(1-Oxo-1,3-dihydro-isoindol-2-yl)-acetyl]-piperazin-1-yl}-N-pyridin-4-yl-benzamide] yielded an IC50 of 5.1 nM.

`Cc1cc(C)n(CC(=O)N2CCC(c3ccc(Cl)cc3NC(=O)c3ccccc3)CC2)n1` [N-(5-Chloro-2-{1-[2-(3,5-dimethyl-pyrazol-1-yl)-acetyl]-piperidin-4-yl}-phenyl)-benzamide] showed an IC50 of 18.5 nM.

For `CN1CCc2nc(NC(=O)c3cc(F)ccc3N3CCN(C(=O)CN4Cc5ccccc5C4=O)CC3)sc2C1` [5-Fluoro-N-(5-methyl-4,5,6,7-tetrahydro-thiazolo[5,4-c]pyridin-2-yl)-2-{4-[2-(1-oxo-1,3-dihydro-isoindol-2-yl)-acetyl]-piperazin-1-yl}-benzamide], the IC50 was 8.1 nM.

`Cc1cc(C)n(CC(=O)N2CCN(c3ccccc3C(=O)Nc3nc(C(C)(C)C)c(C#N)s3)CC2)n1` [N-(4-tert-Butyl-5-cyano-thiazol-2-yl)-2-{4-[2-(3,5-dimethyl-pyrazol-1-yl)-acetyl]-piperazin-1-yl}-benzamide] gave an IC50 of 18.5 nM.

Work on `Cc1cc(C)n(CC(=O)N2CCN(c3ccccc3C(=O)Nc3cc(C4CCCCC4)no3)CC2)n1` [N-(3-Cyclohexyl-isoxazol-5-yl)-2-{4-[2-(3,5-dimethyl-pyrazol-1-yl)-acetyl]-piperazin-1-yl}-benzamide] yielded an IC50 of 8.3 nM.

With `Cc1cc(C)n(CC(=O)N2CCN(c3ccccc3C(=O)Nc3nc4c(s3)COCC4)CC2)n1` [N-(6,7-Dihydro-4H-pyrano[4,3-d]thiazol-2-yl)-2-{4-[2-(3,5-dimethyl-pyrazol-1-yl)-acetyl]-piperazin-1-yl}-benzamide] the IC50 was 8.6 nM.

Work on `Cc1csc(NC(=O)c2ccccc2N2CCN(C(=O)Cn3nc(C)cc3C)CC2)n1` [2-{4-[2-(3,5-Dimethyl-pyrazol-1-yl)-acetyl]-piperazin-1-yl}-N-(4-methyl-thiazol-2-yl)-benzamide] yielded an IC50 of 12 nM.

`COc1ccc(C(=O)N(C)CC(=O)N2CCN(c3ccccc3C(=O)Nc3ccncc3)CC2)cc1` [4-Methoxy-N-methyl-N-(2-oxo-2-{4-[2-(pyridin-4-ylcarbamoyl)-phenyl]-piperazin-1-yl}-ethyl)-benzamide] was tested, and the IC50 was 15 nM.

`Cc1nc(CC(=O)N2CCN(c3ccccc3C(=O)Nc3ccncc3)CC2)c(C)s1` [2-{4-[2-(2,5-Dimethyl-thiazol-4-yl)-acetyl]-piperazin-1-yl}-N-pyridin-4-yl-benzamide] was tested, and the IC50 was 7 nM.

Work on `Cc1cc(C)n(CC(=O)N2CCN(c3ccccc3C(=O)Nc3nc(C(F)(F)F)cs3)CC2)n1` [2-{4-[2-(3,5-Dimethyl-pyrazol-1-yl)-acetyl]-piperazin-1-yl}-N-(4-trifluoromethyl-thiazol-2-yl)-benzamide] yielded an IC50 of 18 nM.

In the case of `Cc1cc(C)n(CC(=O)N2CCN(c3ccccc3NC(=O)c3ccc(Cl)cc3)CC2)n1` [4-Chloro-N-(2-{4-[2-(3,5-dimethyl-pyrazol-1-yl)-acetyl]-piperazin-1-yl}-phenyl)-benzamide], the IC50 is reported as 4.7 nM.

`Cc1cc(C)n(CC(=O)N2CCN(c3ccccc3C(=O)Nc3cccc(S(=O)(=O)N(C)C)c3)CC2)n1` [2-{4-[2-(3,5-Dimethyl-pyrazol-1-yl)-acetyl]-piperazin-1-yl}-N-(3-dimethylsulfamoyl-phenyl)-benzamide] showed an IC50 of 17 nM.

With `Cc1cc(C)n(CC(=O)N2CCN(c3ncc(Cl)cc3NC(=O)c3ccc(S(C)(=O)=O)cc3)CC2)n1` [N-(5-Chloro-2-{4-[2-(3,5-dimethyl-pyrazol-1-yl)-acetyl]-piperazin-1-yl}-pyridin-3-yl)-4-methanesulfonyl-benzamide] the IC50 was 23 nM.

In the case of `O=C(Nc1cccnc1)c1ccccc1N1CCN(C(=O)Cn2ccc3cccnc32)CC1` [N-Pyridin-3-yl-2-[4-(2-pyrrolo[2,3-b]pyridin-1-yl-acetyl)-piperazin-1-yl]-benzamide], the IC50 is reported as 4.6 nM.

`Cc1nn(C)c(C)c1CC(=O)N1CCN(c2ccccc2C(=O)Nc2ccncc2)CC1` [N-Pyridin-4-yl-2-{4-[2-(1,3,5-trimethyl-1H-pyrazol-4-yl)-acetyl]-piperazin-1-yl}-benzamide] showed an IC50 of 19.5 nM.

Work on `Cc1cc(C)n(CC(=O)N2CCN(c3ccccc3NC(=O)c3cccc(Cl)c3)CC2)n1` [3-Chloro-N-(2-{4-[2-(3,5-dimethyl-pyrazol-1-yl)-acetyl]-piperazin-1-yl}-phenyl)-benzamide] yielded an IC50 of 4.2 nM.

Reference: US8362249B2, “CXCR3 receptor antagonists” (Boehringer Ingelheim International GmbH, priority 2009, dated 2013)
